Each structure is given as a SMILES string.

In the test the target is CREBBP (Homo sapiens (Human), UniProt Q92793). In words: In vitro enzyme inhibition assay - CREBBP inhibition (AlphaScreen, biotinylated H4-tetraacetyl peptide). The note with it: Table 28; AlphaScreen, H4-tetraacetyl peptide. The format is binding. An outline of the steps: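 Displacement of 20 nM biotinylated tetraacetyl-H4 peptide from 50 nM E. coli-expressed His-CREBBP, measured by AlphaScreen after bead equilibration for 2 h.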
CREBBP, sequence (Q92793 1081-1197): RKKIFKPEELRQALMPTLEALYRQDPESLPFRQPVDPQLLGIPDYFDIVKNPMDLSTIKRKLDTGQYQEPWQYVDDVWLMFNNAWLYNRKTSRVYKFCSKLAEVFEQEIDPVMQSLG
On the technique in general: Alpha assays give light when donor and acceptor beads are brought close together.
Broadly, the IC50 is the point on the concentration scale where inhibition reaches its midpoint. Lower therefore signals greater potency. `CCCS(=O)(=O)Nc1nc(Oc2c(C)cccc2F)nc(-c2cc(C)c(=O)n(C)c2)n1` [Example 173, Propane-1-sulfonic acid [4-(1,5-dimethyl-6-oxo-1,6-dihydro-pyridin-3-yl)-6-(2-fluoro-6-methyl-phenoxy)-[1,3,5]triazin-2-yl]-amide] registered an IC50 of less than 500 nM. `CCCCS(=O)(=O)Nc1nc(Oc2c(C)cccc2F)nc(-c2cc(C)c(=O)n(C)c2)n1` [Example 174, Butane-1-sulfonic acid [4-(1,5-dimethyl-6-oxo-1,6-dihydro-pyridin-3-yl)-6-(2-fluoro-6-methyl-phenoxy)-[1,3,5]triazin-2-]-amide] returned an IC50 of less than 500 nM. As for `CCS(=O)(=O)Nc1nc(Oc2c(C)cccc2F)nc(-c2ccc(=O)n(C)c2)n1` [Example 175, Ethanesulfonic acid [4-(2-fluoro-6-methyl-phenxoy)-6-(1-methyl-6-oxo-1,6-dihydro-pyridin-3-yl)-[1,3,5]triazin-2-yl]-amide], the IC50 is less than 500 nM. Molecule `Cc1cccc(F)c1Oc1nc(NS(=O)(=O)C(C)C)nc(-c2ccc(=O)n(C)c2)n1` [Example 176, Propane-2-sulfonic acid [4-(2-fluoro-6-methyl-phenoxy)-6-(1-methyl-6-oxo-1,6-dihydro-pyridin-3-yl)-[1,3,5]triazin-2-yl]-amide] yielded a half-inhibitory concentration (IC50) of less than 500 nM. In turn, `CCCS(=O)(=O)Nc1nc(Oc2c(C)cccc2F)nc(-c2ccc(=O)n(C)c2)n1` [Example 177, Propane-1-sulfonic acid [4-(2-fluoro-6-methyl-phenoxy)-6-(1-methyl-6-oxo-1,6-dihdyro-pyridin-3-yl)-[1,3,5]triazin-2-yl]-amide] had an IC50 of less than 500 nM. Molecule `CCCCS(=O)(=O)Nc1nc(Oc2c(C)cccc2F)nc(-c2ccc(=O)n(C)c2)n1` [Example 178, Butane-1-sulfonic acid [4-(2-fluoro-6-methyl-phenoxy)-6-(1-methyl-6-oxo-1,6-dihydro-pyridin-3-yl)-[1,3,5]triazin-2-yl]-amide] came in with an IC50 of less than 500 nM. Take `CCS(=O)(=O)Nc1nc(Oc2c(C)cccc2Cl)nc(-c2ccc(=O)n(C)c2)n1` [Example 179, Ethanesulfonic acid [4-(2-chloro-6-methyl-phenxoy)-6-(1-methyl-6-oxo-1,6-dihydro-pyridin-3-yl)-[1,3,5]triazin-2-yl]-amide]: the IC50 was less than 500 nM. `Cc1cccc(Cl)c1Oc1nc(NS(=O)(=O)C(C)C)nc(-c2ccc(=O)n(C)c2)n1` [Example 180, Propane-2-sulfonic acid [4-(2-chloro-6-methyl-phenoxy)-6-(1-methyl-6-oxo-1,6-dihydro-pyridin-3-yl)-[1,3,5]triazin-2-yl]-amide] had an IC50 of less than 500 nM. As for `CCCS(=O)(=O)Nc1nc(Oc2c(F)cccc2Cl)nc(-c2ccc(=O)n(C)c2)n1` [Example 181, Propane-1-sulfonic acid [4-(2-chloro-6-fluoro-phenoxy)-6-(1-methyl-6-oxo-1,6-dihydro-pyridin-3-yl)-[1,3,5]triazin-2-yl]-amide], the figure is less than 500 nM; as for `CCCCS(=O)(=O)Nc1nc(Oc2c(F)cccc2Cl)nc(-c2ccc(=O)n(C)c2)n1` [Example 182, Butane-1-sulfonic acid [4-(2-chloro-6-fluoro-phenoxy)-6-(1-methyl-6-oxo-1,6-dihydro-pyridin-3-yl)-[1,3,5]triazin-2-yl]-amide], less than 500 nM; as for `Cc1cccc(F)c1Oc1nc(NS(=O)(=O)CC(C)C)nc(-c2cc(C)c(=O)n(C)c2)n1` [Example 183, 2-Methyl-propane-1-sulfonic acid [4-(1,5-dimethyl-6-oxo-1,6-dihydro-pyridin-3-yl)-6-(2-fluoro-6-methyl-phenoxy)-[1,3,5]triazin-2-yl]-amide], less than 500 nM. `Cc1cccc(F)c1Oc1nc(NS(=O)(=O)C2CCCC2)nc(-c2cc(C)c(=O)n(C)c2)n1` [Example 184, Cyclopentanesulfonic acid [4-(1,5-dimethyl-6-oxo-1,6-dihydro-pyridin-3-yl)-6-(2-fluoro-6-methyl-phenoxy)-[1,3,5]triazin-2-yl]-amide] returned an IC50 of less than 500 nM.

In the case of `CCCCCS(=O)(=O)Nc1nc(Oc2c(C)cccc2F)nc(-c2cc(C)c(=O)n(C)c2)n1` [Example 185, Pentane-1-sulfonic acid [4-(1,5-dimethyl-6-oxo-1,6-dihydro-pyridin-3-yl)-6-(2-fluoro-6-methyl-phenoxy)-[1,3,5]triazin-2-yl]-amide], the 50% inhibitory concentration (IC50) is less than 500 nM. The molecule `Cc1cccc(F)c1Oc1nc(NS(=O)(=O)CCC(C)C)nc(-c2cc(C)c(=O)n(C)c2)n1` [Example 186, 3-Methyl-butane-1-sulfonic acid [4-(1,5-dimethyl-6-oxo-1,6-dihydro-pyridin-3-yl)-6-(2-fluoro-6-methyl-phenoxy)-[1,3,5]triazin-2-yl]-amide] had an IC50 of less than 500 nM. As for `CCCCS(=O)(=O)Nc1nc(Oc2c(C)cccc2Cl)nc(-c2cc(C)c(=O)n(C)c2)n1` [Example 188, Butane-1-sulfonic acid [4-(2-chloro-6-methyl-phenoxy)-6-(1,5-dimethyl-6-oxo-1,6-dihydro-pyridin-3-yl)-[1,3,5]triazin-2-yl]-amide], the figure is less than 500 nM.

The molecule `CCCCS(=O)(=O)Nc1nc(Oc2c(F)cccc2F)nc(-c2cc(C)c(=O)n(C)c2)n1` [Example 189, Butane-1-sulfonic acid [4-(2,6-difluoro-phenoxy)-6-(1,5-dimethyl-6-oxo-1,6-dihydro-pyridin-3-yl)-[1,3,5]triazin-2-yl]-amide] returned a half-inhibitory concentration (IC50) of less than 500 nM.

`CCCCS(=O)(=O)Nc1nc(Oc2c(F)cccc2Cl)nc(-c2cc(C)c(=O)n(C)c2)n1` [Example 190, Butane-1-sulfonic acid [4-(2-chloro-6-fluoro-phenoxy)-6-(1,5-dimethyl-6-oxo-1,6-dihydro-pyridin-3-yl)-[1,3,5]triazin-2-yl]-amide] had an IC50 of less than 500 nM. On to `CCS(=O)(=O)Nc1cc(-c2cc(C)c(=O)n(C)c2)nc(-c2ccccc2)n1` [Example 191, Ethanesulfonic acid [6-(1,5-dimethyl-6-oxo-1,6-dihydro-pyridin-3-yl)-2-phenyl-pyrimidin-4-yl]-amide], for which the IC50 fell in the range of 500 to 5000 nM. As for `CCS(=O)(=O)Nc1cc(-c2cc(C)c(=O)n(C)c2)nc(-c2ccccc2C)n1` [Example 192, Ethanesulfonic acid [6-(1,5-dimethyl-6-oxo-1,6-dihydro-pyridin-3-yl)-2-o-tolyl-pyrimidin-4-yl]-amide], the figure is less than 500 nM. `CCS(=O)(=O)Nc1cc(-c2cc(C)c(=O)n(C)c2)nc(-c2ccccc2OC)n1` [Example 193, Ethanesulfonic acid [6-(1,5-dimethyl-6-oxo-1,6-dihydro-pyridin-3-yl)-2-(2-methoxy-phenyl)-pyrimidin-4-yl]-amide] had an IC50 of less than 500 nM. As for `CCS(=O)(=O)Nc1cc(-c2ccc(=O)n(C)c2)nc(-c2ccc(C)cc2OC)n1` [Example 194, Ethanesulfonic acid [2-(2-methoxy-4-methyl-phenyl)-6-(1-methyl-6-oxo-1,6-dihydro-pyridin-3-yl)-pyrimidin-4-yl]-amide], the figure is 500 to 5000 nM; as for `CCS(=O)(=O)Nc1cc(-c2ccc(=O)n(C)c2)nc(-c2cc(C)ccc2OC)n1` [Example 195, Ethanesulfonic acid [2-(2-methoxy-5-methyl-phenyl)-6-(1-methyl-6-oxo-1,6-dihydro-pyridin-3-yl)-pyrimidin-4-yl]-amide], 500 to 5000 nM. Regarding `CCCS(=O)(=O)Nc1cc(-c2ccc(=O)n(C)c2)nc(-c2ccccc2OC)n1` [Example 196, Propane-1-sulfonic acid [2-(2-methoxy-phenyl)-6-(1-methyl-6-oxo-1,6-dihydro-pyridin-3-yl)-pyrimidin-4-yl]-amide], the 50% inhibitory concentration (IC50) fell in the range of 500 to 5000 nM. As for `CCCCS(=O)(=O)Nc1cc(-c2ccc(=O)n(C)c2)nc(-c2ccccc2OC)n1` [Example 197, Butane-1-sulfonic acid [2-(2-methoxy-phenyl)-6-(1-methyl-6-oxo-1,6-dihydro-pyridin-3-yl)-pyrimidin-4-yl]-amide], the figure is less than 500 nM. The molecule `CCS(=O)(=O)Nc1cc(-c2ccc(=O)n(C)c2)nc(-c2ccccc2C#N)n1` [Example 198, Ethanesulfonic acid [2-(2-cyano-phenyl)-6-(1-methyl-6-oxo-1,6-dihydro-pyridin-3-yl)-pyrimidin-4-yl]-amide] came in with an IC50 of less than 500 nM. As for `CCS(=O)(=O)Nc1cc(-c2ccc(=O)n(C)c2)nc(-c2ccccc2OC)n1` [Example 199, Ethanesulfonic acid [2-(2-methoxy-phenyl)-6-(1-methyl-6-oxo-1,6-dihydro-pyridin-3-yl)-pyrimidin-4-yl]-amide], the figure is 500 to 5000 nM; as for `CCS(=O)(=O)Nc1nc(OC(C)C)nc(-c2ccc(=O)n(C)c2)n1` [Example 200, Ethanesulfonic acid [4-isopropoxy-6-(1-methyl-6-oxo-1,6-dihydro-pyridin-3-yl)-[1,3,5]triazin-2-yl]-amide], 500 to 5000 nM; as for `CCCS(=O)(=O)Nc1nc(OC(C)C)nc(-c2ccc(=O)n(C)c2)n1` [Example 201, Propane-1-sulfonic acid [4-isopropoxy-6-(1-methyl-6-oxo-1,6-dihydro-pyridin-3-yl)-[1,3,5]triazin-2-yl]-amide], 500 to 5000 nM.

As for `CC[C@H](C)S(=O)(=O)Nc1cc(-c2ccc(=O)n(C)c2)nc(Oc2c(C)cccc2F)n1` [Example 202, (S)-N-(2-(2-fluoro-6-methylphenoxy)-6-(1-methyl-6-oxo-1,6-dihydropyridin-3-yl)pyrimidin-4-yl)butane-2-sulfonamide], the IC50 is less than 500 nM. Take `CC[C@@H](C)S(=O)(=O)Nc1cc(-c2ccc(=O)n(C)c2)nc(Oc2c(C)cccc2F)n1` [Example 203, (R)-N-(2-(2-fluoro-6-methylphenoxy)-6-(1-methyl-6-oxo-1,6-dihydropyridin-3-yl)pyrimidin-4-yl)butane-2-sulfonamide]: the IC50 was less than 500 nM.

`CC[C@@H](C)S(=O)(=O)Nc1cc(-c2ccc(=O)n(C)c2)nc(Oc2c(C)cccc2Cl)n1` [Example 204, Butane-(2R)-sulfonic acid [2-(2-chloro-6-methyl-phenoxy)-6-(1-methyl-6-oxo-1,6-dihydro-pyridin-3-yl)-pyrimidin-4-yl]-amide]: the IC50 is less than 500 nM.

The values are drawn from patent publication US10202360B2 (CELGENE QUANTICEL RESEARCH, INC., priority 2016, dated 2019).
